Assay results from PMC9818021, “Targets, Mechanisms and Cytotoxicity of Half-Sandwich Ir(III) Complexes Are Modulated by Structural Modifications on the Benzazole Ancillary Ligand” (Cancers, 2022).

How the values were obtained:
BALB/c mice [1] = assay: Biodistribution (ICP-MS of organs); assay type: in vivo, mouse; conditions: 4 h after i.v. injection
Description: Biodistribution studies: BALB/c mice were injected via the tail vein with 100 µL of 1[C,NH] dissolved in PBS. Then, 4 h after the injection, the animals (n = 3) were sacrificed, and the following organs were removed: kidney, spleen, liver, heart, lung, pancreas, intestine, ovary and stomach. They were kept at −80 °C until their analysis at the Cactus-Lugo Instrumental Analysis Unit. Solutions were diluted to a final volume of 10 mL MilliQ water and measured on an Agilent 7700x-ICP-MS.

A549 cells [2] = assay: 8-OHdG DNA damage quantification; assay type: cell-based, human; conditions: 16 μM, 4 h
Description: (§1) DNA damage was measured using EpiQuik 8-OHdG DNA Damage Quantification Direct Kit (colorimetric) (Fischer, Waltham, MA, USA, P600396); The mitochondrial cytochrome C release was evaluated using the “Millipore’s FlowCellect Cytochrome C Kit (Millipore, FCCH100110)”. Lactate dehydrogenase activity release was measured in the culture medium using Cytotoxicity Detection Kit (Roche Diagnostic, Barcelona, Spain, 11 644 793 001). Protein synthesis was determined using Click-iT Plus O-propargyl-puromycin (OPP) Protein Synthesis Assay Kit (Invitrogen™, Waltham, MA, USA). Measurement of GSH/GSSG was determined with GSH/GSSG-Glo Assay (Promega, V6611). Measurements of OCR and ECAR with Seahorse XFp (Agilent Technologies) were determined using the XFp Cell Mito Stress Test Kit (103010-100) and XFp Glycolysis Stress Test Kit (103017-100). ATP measurement was determined with Cell Titer-Glo Luminescent Cell Viability Assay (Promega, Madison, WI, USA, G7570). Determination of DNA damage using phosphorylated H2AX measurement were performed as previously described. Cardiolipin oxidation using the fluorophore Nonyl Acridine Orange (NAO, Thermo Scientific, A1372) was performed as described. Cell viability was determined by Hoechst inclusion and Propidium iodide (PI) exclusion by standard protocols. TEM analysis were performed as described. […]

A549 cells [3] = assay: DNA damage by phosphorylated H2AX, flow cytometry; assay type: cell-based, human; conditions: 4 h
Description: (§2) DNA damage was measured using EpiQuik 8-OHdG DNA Damage Quantification Direct Kit (colorimetric) (Fischer, Waltham, MA, USA, P600396); The mitochondrial cytochrome C release was evaluated using the “Millipore’s FlowCellect Cytochrome C Kit (Millipore, FCCH100110)”. Lactate dehydrogenase activity release was measured in the culture medium using Cytotoxicity Detection Kit (Roche Diagnostic, Barcelona, Spain, 11 644 793 001). Protein synthesis was determined using Click-iT Plus O-propargyl-puromycin (OPP) Protein Synthesis Assay Kit (Invitrogen™, Waltham, MA, USA). Measurement of GSH/GSSG was determined with GSH/GSSG-Glo Assay (Promega, V6611). Measurements of OCR and ECAR with Seahorse XFp (Agilent Technologies) were determined using the XFp Cell Mito Stress Test Kit (103010-100) and XFp Glycolysis Stress Test Kit (103017-100). ATP measurement was determined with Cell Titer-Glo Luminescent Cell Viability Assay (Promega, Madison, WI, USA, G7570). Determination of DNA damage using phosphorylated H2AX measurement were performed as previously described. Cardiolipin oxidation using the fluorophore Nonyl Acridine Orange (NAO, Thermo Scientific, A1372) was performed as described. Cell viability was determined by Hoechst inclusion and Propidium iodide (PI) exclusion by standard protocols. TEM analysis were performed as described. Cell cycle analysis by flow cytometry and microarrays analysis were performed as described. Arrays data have been deposited in the ArrayExpress database at EMBL-EBI (www.ebi.ac.uk/arrayexpress) under accession number E-MTAB-860 (10 November 2022)

A549 cells [4] = assay: MTT viability with NAC pre-incubation; assay type: cell-based, human; conditions: NAC 10 mM 2 h pre-incubation, then 24 h
Description: Cytotoxicity. MTT Assay and IC50 estimation. The cytotoxicity of 1[C,NH-Cl], 2[C,NMe-Cl], 3[N,NH-Cl]Cl, 4[N,NMe-Cl]Cl, 5[CNH2,NH-Cl]Cl, 6[CNH2,S-Cl]Cl, 7[CO,NH-Cl] and 8[CO,S-Cl] in A2780, A2780cis, SW480 and A549 carcinoma cells was evaluated by the MTT colorimetric assay. Cells were seeded in 96-well plates at 5000 cells per well and incubated at 37 °C, 5% CO2. After 24 h, the medium was removed and replaced with fresh medium with different concentrations of the compounds under study, and they were incubated for 48 h. Final DMSO concentration was kept below 0.7% in wells. For a negative control, one sequence of cells was left untreated and for vehicle control, cells treated with DMSO were included. For cell viability experiments preincubating with NAC (N-Acetyl-L-Cysteine), the cells were pre-treated with NAC, 10 mM for 2 h before the incubation with complex 1[C,NH-Cl] for 24 h. Then, the medium was removed from the wells, and 100 µL MTT (5 mg/mL) was added. […] Cell growth inhibition was detected by measuring the absorbance of each well at 595 nm using a BioTek Cytation5 microplate reader. […] The percentage of survival cells was calculated using absorbance measurements compared with control and the IC50 estimation using Graph Pad Prism version 6.01.

A549 cells [5] = assay: GSH/GSSG-Glo assay; assay type: cell-based, human; conditions: 1 h
Description: as §1

A549-gal cells = assay: Seahorse XFp Glycolysis Stress Test (ECAR); assay type: cell-based, human; conditions: 16 µM
Description: Cell culture. Epithelial ovarian carcinoma cells (A2780) that acquired resistance to cisplatin epithelial ovarian carcinoma cells (A2780cis), colon adenocarcinoma cells (SW480) and epithelial lung adenocarcinoma cells (A549) were provided by Sigma Aldrich. A549 and SW480 cells were grown in Dulbecco′s Modified Eagle′s Medium (DMEM), supplemented with 10% Fetal Bovine Serum (FBS) and 1% penicillin, streptomycin and 1% glutamine for A549 and 1% amphotericin B for SW480. The A2780 and A2780cis were grown in RPMI 1640 supplemented with 10% Fetal Bovine Serum (FBS), 1% glutamine and 1% penicillin, streptomycin and amphotericin B. All cells were incubated in a humidified incubator at 37 °C under a 5% CO2 atmosphere and grown in 100 mm culture dishes to approximately 70–80% confluence. For subculturing, cells were detached with Trypsin-EDTA (Sigma). A549-gal were derived from A549 cultured in glucose-free medium supplemented with 10 mM galactose (Sigma) for at least 10 passes.
as §2

BALB/c mice [6] = assay: Acute toxicity in healthy mice; assay type: in vivo, mouse; conditions: dissolved in PBS
Description: Female mice weighing approximately 20–25 g, 8–12 weeks were obtained from Janvier Laboratories (Le Genest-Saint-Isle, France). All mice received a standard laboratory diet and water ad libitum. The use of immunosuppressed animals is always a limitation since they are not a true reflection of an animal with a functional immune system and, therefore, can affect both the toxicological response and the biodistribution of a compound, but they are essential to be able to implant human tumor cells, otherwise the tumor would be rejected by the immune system. Therefore, in order to analyze the biodistribution, toxicology and efficacy of a compound against a tumor, it is necessary to use different animals. Animal studies were approved by the Bioethics Committee of the Universidade de Santiago de Compostela and were done in compliance with the principles of laboratory animal care according to Spanish national law (RD 53/2013).

## Cc1c(C)c(C)[c-](C)c1C.[Cl][Ir]1[c]2ccccc2-c2[nH]c3ccccc3[n+]21 [1[C,NH], [(η^5-Cp*)IrCl(κ^2-N,C-pbim)]]
BALB/c mice [1]
  Tissues with the highest accumulation: liver, kidneys and lungs
A549 cells [2]
  8-OHdG levels: increased after 4 h
A549 cells [3]; 8 μM
  Percentage of A549 positive cells to damage on DNA: 2%
A549 cells [3]; 16 μM
  Percentage of A549 positive cells to damage on DNA: 30%
A549 cells [3]; 24 μM
  Percentage of A549 positive cells to damage on DNA: 87%
A549 cells [4]
  Rescue of cytotoxicity by NAC: partial rescue
A549 cells [5]
  GSH/GSSG ratio: decreased the GSH/GSSG ratio
A549-gal cells
  Acute Response, ECAR, Mean: 4.17 mpH/min
  Glycolysis, ECAR, Mean: 44.81 mpH/min
  Glycolytic Capacity, ECAR, Mean: 43.97 mpH/min
  Glycolytic Reserve %, Mean: 98.26%
  Glycolytic Reserve, ECAR, Mean: 2.48 mpH/min
  Non-Glycolytic Acidification, ECAR, Mean: 9.64 mpH/min
BALB/c mice [6]
  Maximum tolerated dose: 1.3 mg/kg
